Assay results published in US11187690B2, “Synthetic receptors for hydrosulfide” (University of Oregon, priority 2016, dated 2021).

How the values were obtained:
[1] = 1H NMR comparison titration with NBu4Cl (Cl^− binding); settings: 10% DMSO-d6/CD3CN
Description: (§1) The higher selectivity is likely due to the pyridine lone pair acting as a hydrogen bond acceptor, which provides an additional stabilizing interaction for HS^− and a destabilizing interaction for Cl^−. The phenyl core of host 1 donates a hydrogen bond to both anionic guests, resulting in decreased selectivity for hydrosulfide, even if this CH hydrogen bond is an important component to the high overall binding energy.

[2] = UV-Vis titration with NBu4SH in MeCN (HS^− binding); settings: for HS^− binding constant: no DMSO co-solvent, 10 μM host
Protocol: (§2) To further investigate the difference in anion selectivity, binding constants were also measured at lower concentrations by UV-Vis spectroscopy in MeCN; the data are summarized in Table 1.
We expected that removal of the DMSO co-solvent would increase the observed binding affinities since acetonitrile is a slightly less competitive solvent (especially as a hydrogen bond acceptor).

[3] = 1H NMR titration with NBu4SH (HS^− binding); settings: 10% DMSO-d6/CD3CN; for selectivity for HS^− over Cl^−: 1H NMR titration data
Protocol: To investigate whether HS^− is a suitable anionic guest for compounds 1-3, we titrated NBu4SH into 0.5-1.0 mM solution of each host in 10% DMSO-d6/CD3CN and monitored the titrations by ^1H NMR spectroscopy. […] For example, upon addition of HS^− to a 0.988 mM solution of 1, the aryl CHa shifted from 7.99 to 9.24 ppm, and the NHb and NHc urea protons shift downfield from 7.94 and 8.92 to 8.63 and 11.18 ppm, respectively. […] We also confirmed that the observed changes in the NMR spectra upon HS^− addition were not merely due to deprotonation of the urea NH groups. […] Titration data of HS^− with the host fit to simple 1:1 binding isotherm models, and a new, upfield-shifted peak appears for bound hydrosulfide.
as §1

[4] = UV-Vis titration with NBu4Cl in MeCN (Cl^− binding)
Protocol: as §2

[5] = Reversibility of HS^− binding (NBu4SH then Zn(OAc)2, 1H NMR); settings: hydrogen-bond binding; for 1: 1.0 mM in 10% DMSO-d6/CD3CN, 2 equiv NBu4SH, 4 equiv Zn(OAc)2, 5 more equiv NBu4SH
[6] = 13C{1H} NMR check of alkyne reactivity toward HS^−; format: physicochemical; settings: 2.3 mM host, 10 equivalents of HS^−

| Structure (SMILES) | Cl^− ΔG [1] | HS^− ΔG [2] | HS^− binding constant ([2]; UV-Vis) | HS^− ΔG [3] | selectivity for HS^− over Cl^− [3] | Cl^− ΔG [4] | reversibility of HS^− binding [5] | selectivity HS^−:Cl^− ([2]; UV-Vis) | reactivity of host alkynes toward HS^− [6] |
| --- | --- | --- | --- | --- | --- | --- | --- | --- | --- |
| COc1ccc(NC(=O)Nc2ccc(C(C)(C)C)cc2C#Cc2cccc(C#Cc3cc(C(C)(C)C)ccc3NC(=O)Nc3ccc(OC)cc3)n2)cc1 [Host 2] | -3.19 kcal/mol | -5.86 kcal/mol | ~25,000 M^−1 | -4.15 kcal/mol | 6 fold | -4.35 kcal/mol | – | – | – |
| COc1ccc(NC(=O)Nc2ccc(C(C)(C)C)cc2C#Cc2cccc(C#Cc3cc(C(C)(C)C)ccc3NC(=O)Nc3ccc(OC)cc3)c2)cc1 [Host 1] | -4.43 kcal/mol | -6.76 kcal/mol | 90,300 M^−1 | -5.05 kcal/mol | 2.8 fold | -6.18 kcal/mol | confirming the reversibility of binding | remained similar to the 10% DMSO-d6/CD3CN system | alkynes were unreactive toward HS^− |
| CC(C)(C)c1ccc(NC(=O)Nc2ccccc2)c(C#Cc2cccc(C#Cc3cc(C(C)(C)C)ccc3NC(=O)Nc3ccccc3)n2)c1 [Host 3] | -3.19 kcal/mol | -6.07 kcal/mol | ~25,000 M^−1 | -4.25 kcal/mol | 6 fold | -4.20 kcal/mol | – | – | – |
